Data as given in a melting point compilation (Tetko et al.; mined from patent text by program, amines drawn as free bases though some values may be those of a salt).

SMILES	melting point
O=C(O)c1ncn2c1[C@@H]1CCN1C(=O)c1cc(F)ccc1-2	159 to 160 °C
CC1(C)C2CC[C@@]1(N1CCCCC1)C(=O)C2	78 to 79 °C
Clc1ccc2c(c1)C(c1ccccc1Cl)=NCc1nccn1-2	179 to 180 °C
CCc1nn(CCN)c(CO)c1Oc1cc(Cl)cc(Cl)c1	105 to 107 °C
CCNc1ccc(C(C)=O)cc1S(N)(=O)=O	201 to 204 °C
NNc1nccc2nc(-c3ccccc3)nn12	216 to 218 °C
COc1ccc(C2(CCN3CCC(c4nc5ccccc5s4)CC3)CCN(C(=O)c3ccccc3)C2)cc1OC (centres undefined)	60 to 62 °C
Nc1ccc(Cl)c(C(=O)NCCC23CC4CC(CC(C4)C2)C3)c1	147 to 149 °C
O=C(O)c1nc2cc(N3CCN(Cc4ccccc4)CC3)c([N+](=O)[O-])cc2[nH]c1=O	278 to 280 °C
COc1nc(C(F)(F)F)cc(=O)n1-c1cc(O)c(Br)cc1F	132 to 136 °C
COCCc1nc2c(N)nc3ccccc3c2n1CCCNC(=O)NC1CCCCC1	179 to 180 °C
CCN1CC(C)Oc2cccc3nc4c(c1c23)CCCC4 (centres undefined)	101 to 103 °C
CC(=O)OCc1ccc(N(c2ccccc2)c2ccc(C=O)cc2)cc1	86 to 89 °C
Oc1ccc(-c2nnn(-c3ccc(C(F)(F)F)cc3F)c2Cl)c(Cl)c1	150 to 152 °C
OCCn1ccccc1=S	95 to 97 °C
CCOC(=O)CS(=O)CCCCl (centres undefined)	46 to 47 °C
COc1ccc(-n2cnc(SC)n2)cc1	54.9 °C
CC(C)(C)OC(=O)c1cc(OCc2ccccc2)c(C(=O)c2c(OCc3ccccc3)cccc2C(=O)O)c(OCc2ccccc2)c1	151 to 156 °C
CCOC(=O)c1nc(C)n2c1CN=C(c1ccccc1Cl)c1cc([N+](=O)[O-])ccc1-2	233 to 234 °C
O=C(O)c1cc(=O)c2c([nH]1)-c1ccccc1SC2	256 to 257 °C
O=C(NCCCN1NC=NN1)c1ccccc1[N+](=O)[O-]	148 to 150 °C

SMILES	melting point
CCC(=O)c1cc(F)c(OCC2CC2(Cl)Cl)cc1F (centres undefined)	89 to 91 °C
COC(=O)c1cc2c([nH]c3ccc(Br)cc32)s1	216 to 218 °C
CC1=CC(C)(C)N2C(=O)C(=O)c3cc(C)cc1c32	157 to 161 °C
CCN(CC)CC1CCCCN1CC(=O)N1c2ccccc2NC(=O)c2ccccc21 (centres undefined)	171 to 172 °C
O=C1CC(OCc2ccccc2)C2COC1O2 (centres undefined)	118 to 119 °C
Cc1c(Br)cc2[nH]c(=O)c(=O)[nH]c2c1[N+](=O)[O-]	> 340 °C
Cn1cc(C2=C(c3ccncc3)C(=O)NC2=O)c2ccccc21	332 to 334 °C
COc1cc([N+](=O)[O-])c2nccc(C)c2c1OCCCCCc1ccccc1	47 to 50 °C
CCC1(c2cccc(O)c2)CCCCN(C)C1 (centres undefined)	128 to 133 °C
Nc1nc(NCCN2CCN(C(c3ccccc3)c3ccccc3)CC2)nc(-c2cc(Cl)ccc2Cl)n1	192 to 193 °C
CCCCCC(O)C=CC1C(O)CC(=O)C1CCCCCCC(=O)OCCSS(C)(=O)=O (centres undefined)	56 to 58 °C
CN1C(=O)C(C)(C)N=C(c2ccccc2Cl)c2cc([N+](=O)[O-])cc(Cl)c21	254 °C
COc1ccc(S(=O)(=O)NCCc2ccc(CC(=O)O)cc2)cc1	160 to 162 °C
C#CCCCCCCCCCCCCCO	42 to 44 °C
COc1ccc(Br)c(C(Cl)=NNS(=O)(=O)c2ccccc2)c1	104 to 106 °C
CCOC(=O)/C=C/C(=O)N1C[C@H](NC(=O)OCc2ccccc2)C1=O	68 °C
O=C(c1ccc(F)cc1)c1cccc(C#Cc2cccc(C(=O)c3ccc(F)cc3)c2)c1	205 to 206 °C
C=Cc1c(F)c(F)cc2c(=O)c(C(=O)OCC)cn(C3CC3)c12	178 to 179 °C
CCOC(=O)CCCNC(=O)c1cc(Br)no1	72 to 73 °C
Cc1nc(=O)[nH]c2ccc(N(C)C)cc12	278 to 281 °C
Brc1csc(C#Cc2ccccc2)n1	79 to 82 °C

SMILES	melting point
O=[N+]([O-])c1ccc2c(C3=CCC4(CC3)OCCO4)c[nH]c2c1	259 to 261 °C
CCOC(=O)NC(=O)C(C#N)=CNc1c(C)cccc1C	138 to 140 °C
C[C@H](OC(=O)CCC(=O)O[C@@H](C)C(=O)O)C(=O)O	59 to 61 °C
O=C(OCc1ccccc1)c1ccc(OCc2ccccc2)cc1OCc1ccccc1	118 to 120 °C
CC1NC(=O)NN=C1c1ccc2c(c1)CCC(=O)N2CCO (centres undefined)	237 to 243 °C
O=C1C=C(O)C(=O)c2cc(Br)ccc21	197 °C
Clc1cccnc1-c1cc(OCCc2ccccn2)c2[nH]nc(Br)c2c1	> 250 °C
COc1ccc(C2(C#Cc3cccc([N+](=O)[O-])c3)CCCC(=O)C2)cc1OC1CCCC1 (centres undefined)	46 to 48 °C
CCC12CCC3C4CCC(=O)C=C4CCC3C1CCC2OC(=O)CCC1CCCC1 (centres undefined)	88 to 89 °C
CN1CCN(C2CC3C4CCC5CC(O)C(N6CCC(O)CC6)CC5(C)C4CCC3(C)C2O)CC1 (centres undefined)	248 to 250 °C
CCC(=O)N1Cc2cnn(C)c2-c2cc(Cl)ccc21	127 to 128 °C
O=C(O)c1cc(NCc2c(F)c(F)c(C(F)(F)F)c(F)c2F)ccc1O	179 °C
CSc1[nH]c2cccc3c2c1CC1C3C=C(C)CN1C (centres undefined)	148 to 150 °C
Oc1ccc2nc(-c3ccc(C45CC6CC(CC(C6)C4)C5)c(O)c3)[nH]c2c1	250 to 252 °C
COC(=O)c1ccc2oc(CCC=O)cc2c1	48 to 49 °C
CC[C@H](C)[C@H](OCc1cc(F)cc(F)c1)[C@H]1[C@H]([N+](=O)[O-])[C@H](c2ccccc2)N[C@@H]1C(=O)NCC(=O)O	140 to 141 °C
N#CC1CN1C(=O)NC(=O)c1ccc2ccccc2c1 (centres undefined)	164 to 166 °C
COc1cc(C(O)CCCCCCCCCCOCc2ccccc2)ccc1OCc1ccccc1 (centres undefined)	43 to 45 °C
CCOC(=O)c1ccc(N)c(C)c1	76 to 77 °C

Other lines, results leading:

melting point	SMILES
61 to 62 °C	COc1ccc(SCCCCN2C(=O)c3ccccc3C2=O)cc1
114 to 115 °C	O=C(CCc1ccccc1)N[C@H](Cc1ccc(C(F)(F)F)cc1)[C@@H](O)c1ccc(F)c(F)c1 (racemic)
157 to 158 °C	NC(=O)CNC(=O)c1cccc(-c2ccc(F)c3cc(Cc4cccc(C(F)(F)F)c4)sc23)c1
214 to 217 °C	Cc1c(NC(=O)CC(C)(C)C)c(C)c2c(c1-c1ccco1)OC[C@@H]2c1ccc(C(C)C)cc1
174 to 176 °C	CCCNC1=CC(=O)C(NCCC)=C2C1=Nc1ccccc1S2(=O)=O
155 to 158 °C	O=C(O)COc1cccc2c1CCc1sc(SC(c3cccc(F)c3)c3cccc(F)c3)nc1-2
> 300 °C	O=C1Cc2c([nH]c3ccc(Br)cc23)-c2ccccc2N1
228 °C	CC(=O)NNc1nc(-c2ccccc2)c2cc(Cl)ccc2n1
206 to 207 °C	COc1cc(C(=O)C=Cc2ccncc2)ccc1OCC(=O)Nc1nc2ccccc2s1
144 to 148 °C	COc1ccc(O)c(C(=O)c2ccc(O)cc2)c1
192 to 195 °C	N=C(Nc1ccc(Cl)cc1)Nc1ncccc1OCc1c(Cl)cccc1Cl
104 to 105 °C	COc1ccc2cc([C@H](C)C(=O)OCC(=O)N(C)CCCO[N+](=O)[O-])ccc2c1
99 to 100 °C	COC(=O)c1cc2c(Oc3ccc(Cl)cc3)cncc2s1
171 °C	O=C(Nc1cccc2[nH]ccc12)c1ccccc1OCC1CO1 (centres undefined)
211 °C	CCc1c(Cc2[nH]c(Cc3[nH]c(C(=O)OCc4ccccc4)c(C)c3CC)c(CC)c2CC)[nH]c(C(=O)OCc2ccccc2)c1C
120 °C	COC(=O)c1ccc(OC)c(NC(=N)c2ccc(F)cc2)c1
101 to 104 °C	CC(C)(C)OC(=O)N1CCCC(CO)(c2ccccc2)C1 (centres undefined)
169 to 171 °C	O=c1cc(C=Cc2ccc(Cl)cc2)oc(-c2ccccc2)c1
115 to 117 °C	CN(C)CCOc1ccc2cc3ncc(C#N)c(Nc4ccc(Cl)cc4Cl)c3cc2c1

melting point	SMILES
118 to 121 °C	Cc1cccc(-c2[nH]c(C(C)C)nc2-c2ccc(F)c(-c3ccc(C)[nH]3)c2)n1
86 to 88 °C	CC(C)(C(=O)O)c1ccc(CCNS(=O)(=O)c2ccccc2)cc1
82 to 87 °C	CC(=O)N(CCc1nc(-c2ccccc2)oc1C)Cc1ccc(C[C@@H](C(=O)O)n2cccc2)cc1
223 to 226 °C	CCCCc1nn(-c2cc(NC(=O)CC)ccc2Cl)c(=O)n1Cc1ccc(-c2ccccc2S(=O)(=O)NC(=O)c2occ(Cl)c2Cl)cc1
130 to 132 °C	CC(C)c1cccc(N2CC(=O)NC(=O)N2)c1
89 to 90 °C	Cc1ccccc1C1=NC(C)(C)OC1c1ccc(N(C)C)cc1 (centres undefined)
142 to 144 °C	CC(=O)Oc1ccc(-c2ccc(C(C)O)cc2)cc1 (centres undefined)
88 to 90 °C	CN1N=C2C(=Cc3ccccc3)CN(C(=O)CCl)CC2C1c1ccccc1 (centres undefined)
148 °C	COc1ccc(-c2ccc3ccc(NC(=O)c4ccc(C(F)(F)F)cc4)nc3n2)cc1
185 to 189 °C	CC(C)(C)OC(=O)N1CCN(c2cc(Cl)ccc2NC(=O)c2ccnc(Cl)c2)CC1
93 to 96.5 °C	CNC(=O)c1cccc(NCC(=O)NCCc2ccc(OC)c(OC)c2)c1
155 to 156 °C	CC#CC(C)(C)NC(=O)C(COC)Oc1ccc2ccncc2c1 (centres undefined)
163 to 165 °C	COc1cc2c(cc1OCc1ccccc1)CCCC(C(=O)O)=C2
231 to 233 °C	Nc1ncnc2c1ncn2Cc1oc2ccc(Br)cc2c(=O)c1-c1ccccc1F
141 to 142 °C	CC(=O)Nc1ccc2c(c1)C(=O)N(CCO[N+](=O)[O-])CO2
150 to 152 °C	CCc1noc(C(=O)Nc2ccccc2)c1C(=O)O
135 to 137 °C	COC(=O)C(CCSC)c1nc(C)nc2c1nnn2-c1ccc(C(C)C)cc1Br (centres undefined)
153 °C	Cc1ccc(C=C2c3ncc(C)cc3CCC2(C)C)cc1
75 to 80 °C	O=C(O)c1c(F)cc(OCCNC(=O)C2Cc3ccccc3N2S(=O)(=O)c2ccc(-c3ccc(F)cc3Cl)cc2)cc1F (centres undefined)
